Experimental data: patent publication US11414450B1, “Aminoglycosides and uses thereof” (REVAGENIX, INC., priority 2017, dated 2022)
Converted amounts (≈) assume the structure as drawn.

Assays:
[1] = tested on: E. coli isogenic strain empty vector; experiment: MIC broth microdilution, E. coli isogenic strain, empty vector; format: cell-based; conditions: for Geometric Mean MIC values, E. coli isogenic strains, empty vector: Table 2
Protocol: (§1) Minimum inhibitory concentrations for the example compounds herein are determined by the broth microdilution method in accordance with the Clinical and Laboratory Standards Institute (CLSI) guidelines. In brief, organism suspensions are adjusted to a 0.5 McFarland standard to yield a final inoculum between 3×10^5 and 7×10^5 colony-forming units (CFU)/mL. Compound dilutions and inocula are made in sterile, cation adjusted Mueller-Hinton Broth (Beckton Dickinson). The inoculum is prepared by suspension of a colony from an agar plate that is prepared the previous day. Bacteria are suspended in sterile saline and added to each assay plate to obtain a final concentration of 5×10^5 CFU/mL. An inoculum volume of 100 μL is added to wells containing 100 μL of broth with 2-fold serial dilutions of the compound. All inoculated microdilution trays are incubated in ambient air at 35° C. for 18-24 hours. Following incubation, the lowest concentration of the compound that prevents visible growth (OD 600 nm<0.05) is recorded as the MIC. […] Performance of the assay is monitored by the use of laboratory quality-control strains and a compound with a defined MIC spectrum (such as levofloxacin), in accordance with CLSI guidelines. Compounds are tested against multiple microbiologic panels. Panels include: 1) a multi-species primary screening panel that includes multiple defined AG-R mechanisms; 2) a panel of isogenic strains carrying different common mechanisms of AG-R that allows characterization of the SAR for AMEs, RMTs, and entry and efflux resistance mechanisms; and 3) panels of recent clinical isolates selected from Phase 3 studies and ongoing global surveillance.

[2] = tested on: E. coli Δefflux (tolC efflux pump knocked-out); experiment: MIC broth microdilution, E. coli Δefflux strain (tolC knocked out); format: cell-based
Protocol: as §1

[3] = tested on: E. coli isogenic strain aac(6′)-Ib; experiment: MIC broth microdilution, E. coli isogenic strain aac(6′)-Ib; format: cell-based; conditions: for Geometric Mean MIC values, E. coli isogenic strains, aac(6′)-Ib: Table 2
Protocol: as §1

[4] = tested on: E. coli isogenic strain ant(4′)-Ia; experiment: MIC broth microdilution, E. coli isogenic strain ant(4′)-Ia; format: cell-based; conditions: Table 2
Protocol: as §1

E. coli efflux parent = experiment: MIC broth microdilution, E. coli efflux parent strain; format: cell-based
Protocol: as §1

[5] = tested on: E. coli isogenic strain nmpA; experiment: MIC broth microdilution, E. coli isogenic strain nmpA; format: cell-based; conditions: for Geometric Mean MIC values, E. coli isogenic strains, nmpA: Table 2
Protocol: as §1

[6] = tested on: E. coli isogenic strain aph(3′)-II; experiment: MIC broth microdilution, E. coli isogenic strain aph(3′)-II; format: cell-based; conditions: for Geometric Mean MIC values, E. coli isogenic strains, aph(3′)-II: Table 2
Protocol: as §1

E. coli ATCC 25922 = experiment: Minimum inhibitory concentration (broth microdilution, CLSI), E. coli ATCC 25922; format: cell-based
Protocol: as §1

[7] = tested on: E. coli isogenic strain aph(3′)-Ia; experiment: MIC broth microdilution, E. coli isogenic strain aph(3′)-Ia; format: cell-based; conditions: for Geometric Mean MIC values, E. coli isogenic strains, aph(3′)-Ia: Table 2, aph(3′)-Ia has activity at both the 3′-hydroxy and 5″-hydroxy positions
Protocol: as §1

[8] = tested on: E. coli isogenic strain armA; experiment: MIC broth microdilution, E. coli isogenic strain armA; format: cell-based; conditions: for Geometric Mean MIC values, E. coli isogenic strains, armA: Table 2
Protocol: as §1

[9] = tested on: P. aeruginosa efflux parent; experiment: MIC broth microdilution, P. aeruginosa efflux parent strain; format: cell-based; conditions: Table 1; geometric mean
Protocol: as §1

P. aeruginosa ATCC 27853 = experiment: MIC broth microdilution, P. aeruginosa ATCC 27853; format: cell-based; conditions: Table 1; geometric mean
Protocol: as §1

translation = experiment: Translation Inhibition Assay; format: biochemical; conditions: Table 1
Excerpt: Biological Example 2: Translation Inhibition Assay

[10] = tested on: P. aeruginosa Δefflux (MexAB-OprM, MexCD-OprJ, MexEF-OprN knocked out); experiment: MIC broth microdilution, P. aeruginosa Δefflux strain; format: cell-based; conditions: Table 1, MexEF-OprN efflux pumps knocked out
Protocol: as §1

Row | SMILES | Geometric Mean MIC values, E. coli isogenic strains, empty vector [1] | Geometric Mean MIC values, E. coli Δefflux ([2]; Table 2) | Geometric Mean MIC values, E. coli isogenic strains, aac(6′)-Ib [3] | Geometric Mean MIC values, E. coli isogenic strains, ant(4′)-Ia [4] | Geometric Mean MIC values, E. coli efflux parent (E. coli efflux parent; Table 2) | Geometric Mean MIC values, E. coli isogenic strains, nmpA [5] | Geometric Mean MIC values, E. coli isogenic strains, aph(3′)-II [6] | Geometric Mean MIC values, E. coli ATCC 25922 (E. coli ATCC 25922; Table 2) | Geometric Mean MIC values, E. coli isogenic strains, aph(3′)-Ia [7] | Geometric Mean MIC values, E. coli isogenic strains, armA [8] | other results
1 | NCC1OC(OC2C(N)CC(N)C(O)C2OC2OC(CO)C(OC3OC(CN)C(O)C(O)C3N)C2O)C(N)CC1O (stereo not shown) [drawing 864, reference compound] | 0.32 µg/mL | 0.25 µg/mL | 2 µg/mL | 2 µg/mL | 0.63 µg/mL | >64 µg/mL | 0.25 µg/mL | 0.71 µg/mL | 38 µg/mL | 0.6 µg/mL | –
2 | CCC(N)C1CCC(N)C(OC2C(N)CC(N)C(O)C2OC2OC(CO)C(OC3OC(CN)C(O)C(O)C3N)C2O)O1 (stereo not shown) [drawing 860] | 1 µg/mL | 0.71 µg/mL | 1.3 µg/mL | 1 µg/mL | 1.4 µg/mL | >64 µg/mL | 1 µg/mL | 2 µg/mL | >64 µg/mL | 3.2 µg/mL | –
3 | NCC1OC(OC2C(CO)OC(OC3C(O)C(N)CC(N)C3OC3OC(CN)C(O)C(F)C3N)C2O)C(N)C(O)C1O (stereo not shown) [drawing 868] | 16 µg/mL | 4 µg/mL | >64 µg/mL | 32 µg/mL | 8 µg/mL | >64 µg/mL | 8 µg/mL | 16 µg/mL | >64 µg/mL | 64 µg/mL | –
4 | CC(N)C1CCC(N)C(OC2C(N)CC(N)C(O)C2OC2OC(CO)C(OC3OC(CN)C(O)C(O)C3N)C2O)O1 (stereo not shown) [drawing 858] | 1 µg/mL | 1 µg/mL | 1 µg/mL | 0.5 µg/mL | 1 µg/mL | >64 µg/mL | 1 µg/mL | 2 µg/mL | >64 µg/mL | 1.4 µg/mL | –
5 | NCC1CCC(N)C(OC2C(N)CC(N)C(O)C2OC2OC(CO)C(OC3OC(CN)C(O)C(O)C3N)C2O)O1 (stereo not shown) [drawing 856, reference compound] | 0.61 µg/mL | 0.87 µg/mL | 5.7 µg/mL | 0.5 µg/mL | 0.87 µg/mL | >64 µg/mL | 0.35 µg/mL | 1.1 µg/mL | 64 µg/mL | 0.74 µg/mL | –
6 | NCC1OC(OC2C(CO)OC(OC3C(O)C(N)CC(N)C3OC3OC(CN)C(O)C(F)C3O)C2O)C(N)C(O)C1O (stereo not shown) [drawing 867] | 2 µg/mL | 1 µg/mL | >64 µg/mL | 64 µg/mL | 1.4 µg/mL | >64 µg/mL | 1.4 µg/mL | 2 µg/mL | 64 µg/mL | 2.8 µg/mL | –
7 | NCC1OC(OC2C(CO)OC(OC3C(O)C(N)CC(N)C3OC3OC(CN)C(O)C(F)(F)C3N)C2O)C(N)C(O)C1O (stereo not shown) [drawing 870] | 4 µg/mL | 2 µg/mL | >64 µg/mL | 8 µg/mL | 4 µg/mL | >64 µg/mL | 4 µg/mL | 5 µg/mL | >64 µg/mL | 32 µg/mL | –
8 | CC(N)C1CCC(N)C(OC2C(N)CC(N)C(O)C2OC2OC(CO)C(OC3OC(CN)C(O)C(O)C3N)C2O)O1 (stereo not shown) [drawing 857] | 0.84 µg/mL | 0.84 µg/mL | 1 µg/mL | 0.71 µg/mL | 1 µg/mL | >64 µg/mL | 0.71 µg/mL | 1.4 µg/mL | 64 µg/mL | 1.5 µg/mL | –
9 | NCC1OC(OC2C(CO)OC(OC3C(O)C(N)CC(N)C3OC3OC(CN)C(O)C(F)C3N)C2O)C(N)C(O)C1O (stereo not shown) [drawing 866] | 0.63 µg/mL | 0.71 µg/mL | 8 µg/mL | 8 µg/mL | 1.4 µg/mL | >64 µg/mL | 1 µg/mL | 1.3 µg/mL | >64 µg/mL | 1.4 µg/mL | –
10 | CO[C@@H]1[C@@H](O[C@@H]2O[C@H](CO)[C@@H](O[C@H]3O[C@@H](CN)[C@@H](O)[C@H](O)[C@H]3N)[C@H]2O)[C@H](O[C@H]2O[C@H](CN)CC[C@H]2N)[C@@H](N)C[C@H]1N [drawing 889] | – | – | – | – | – | – | – | – | – | – | MIC ([1]; Escherichia coli, read-out: Geometric Mean MIC values, E. coli isogenic strains empty vector): 0.5 µg/mL (≈ 0.838 µM); Geometric Mean MIC values, E. coli Δefflux ([2]; E. coli Δefflux): 0.5 µg/mL; MIC ([3]; Escherichia coli, read-out: Geometric Mean MIC values, E. coli isogenic strains aac(6′)-Ib): 8 µg/mL (≈ 13.4 µM); MIC (E. coli efflux parent; Escherichia coli, E. coli efflux parent strain, read-out: Geometric Mean MIC values, E. coli efflux parent): 0.5 µg/mL (≈ 0.838 µM); MIC ([5]; Escherichia coli, read-out: Geometric Mean MIC values, E. coli isogenic strains npmA): > 32 µg/mL; MIC ([6]; Escherichia coli, read-out: Geometric Mean MIC values, E. coli isogenic strains aph(3′)-II): 0.5 µg/mL (≈ 0.838 µM); MIC (E. coli ATCC 25922; Escherichia coli, ATCC25922, E. coli ATCC 25922, broth microdilution, read-out: Geometric Mean MIC values, E. coli ATCC 25922): 1 µg/mL (≈ 1.68 µM); MIC ([7]; Escherichia coli, read-out: Geometric Mean MIC values, E. coli isogenic strains aph(3′)-Ia): 16 µg/mL (≈ 26.8 µM); MIC ([8]; Escherichia coli, read-out: Geometric Mean MIC values, E. coli isogenic strains armA): 0.5 µg/mL (≈ 0.838 µM)
11 | NCC1OC(OC2C(CO)OC(OC3C(O)C(N)CC(N)C3OC3OC(C4(N)CC4)CCC3N)C2O)C(N)C(O)C1O (stereo not shown) [drawing 859] | 0.5 µg/mL | 1 µg/mL | 1 µg/mL | – | 1 µg/mL | 32 µg/mL | 1 µg/mL | 1 µg/mL | >32 µg/mL | 4 µg/mL | –
12 | NCC1CCC(N)C(OC2C(N)CC(N)C(O)C2OC2OC(CO)C(OC3OC(CN)C(O)C(O)C3N)C2O)O1 (stereo not shown) [drawing 848] | – | – | – | – | – | – | – | – | – | – | Geometric Mean MIC values, E. coli Δefflux ([2]; Table 1): 1.4 µg/mL; Geometric Mean MIC values, E. coli efflux parent (E. coli efflux parent; Table 1): 1.4 µg/mL; Geometric Mean MIC values, P. aeruginosa efflux parent [9]: 0.77 µg/mL; Geometric Mean MIC values, P. aeruginosa ATCC 27853 (P. aeruginosa ATCC 27853): 0.57 µg/mL; IC50 (translation): 13 nM; Geometric Mean MIC values, E. coli ATCC 25922 (E. coli ATCC 25922; Table 1): 1.1 µg/mL; Geometric Mean MIC values, P. aeruginosa Δefflux [10]: 0.5 µg/mL
